Results on 5 compounds are retold here after publication PMC9145622, “Synthesis, Biological Evaluation, and Docking Studies of Antagonistic Hydroxylated Arecaidine Esters Targeting mAChRs” (Molecules, 2022).

Data set [1] in a line: High-throughput HPLC-logD. It is filed as physicochemical. The settings on record: octadecyl-poly(vinyl alcohol) column, methanol / 0.01 M sodium phosphate buffer pH 7.4. From the text: For this, logD values were estimated in an HPLC-based high-throughput assay employing an octadecyl-poly(vinyl alcohol) stationary phase. The absence of silanol groups renders this type of column especially suited in case of analytes with hydrogen bond donor capabilities as it avoids overestimating their lipophilicity.
Briefly, a mixture of toluene (≥98%, Sigma-Aldrich, St. Louis, MO, USA) and triphenylene (≥99.9%, Carl Roth, Karlsruhe, Germany) was used as internal standard. Samples were dissolved in the internal standard mixture. Using gradient elution, the injection volume was set to 7 µL, the flow rate was 1.5 mL/min, and the mobile phase consisted of a mixture of methanol and 0.01 M sodium phosphate buffer pH 7.4. The HPLC-logD values were derived from the measured retention times following the previously published equation [21, 40].

Data set [2] concerns the target T1, hM4 (Homo sapiens, UniProt P08173).
T1 sequence (P08173 1-479): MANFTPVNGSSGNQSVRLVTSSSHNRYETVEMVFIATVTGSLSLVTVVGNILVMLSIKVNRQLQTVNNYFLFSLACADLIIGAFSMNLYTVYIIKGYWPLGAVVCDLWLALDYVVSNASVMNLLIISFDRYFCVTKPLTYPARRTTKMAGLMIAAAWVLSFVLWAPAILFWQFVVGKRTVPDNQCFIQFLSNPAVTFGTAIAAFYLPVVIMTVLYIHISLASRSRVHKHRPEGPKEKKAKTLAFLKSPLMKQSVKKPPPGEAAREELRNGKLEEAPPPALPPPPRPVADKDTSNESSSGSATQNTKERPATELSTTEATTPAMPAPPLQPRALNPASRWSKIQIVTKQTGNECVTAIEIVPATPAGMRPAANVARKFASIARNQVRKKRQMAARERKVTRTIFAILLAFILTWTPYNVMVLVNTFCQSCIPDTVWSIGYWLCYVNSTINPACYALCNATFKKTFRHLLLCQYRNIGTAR
The data set can be described thus: Competitive [3H]NMS radioligand binding, CHO-K1 membranes expressing hM4. The settings on record: [3H]NMS, CHO-hM4 cell membrane preparations; read-out: Affinity: Ki ± SD hM4. From the text: (§1) The arecaidine esters’ affinities towards the human mAChR subtypes hM1–hM5 were studied in a competitive radioligand binding assay using CHO-K1 cell membrane homogenates expressing a single mAChR subtype and tritiated N-methyl scopolamine methyl chloride ([^3H]NMS). To speed up our affinity testing regime, we subjected all test substances to preliminary single-concentration displacement assays, as described previously. Compounds with percent displacements below 75% at any of the subtypes were dropped from further investigations (Table S1). For compounds meeting the percent displacement threshold (8c, 10b, 10c, 17b, 18b, and 25), inhibition constants (Ki) were assessed in dose-dependent displacement experiments (Table 2).
(§2) Cell membranes bearing hM1-hM5 receptors were prepared as described previously. Briefly, stably transfected CHO-K1 cells were grown to at least 80% confluency in T175 flasks, washed with ice-cold DPBS, and scraped into a mixture of ice-cold 2 mL 10 mM Tris-HCl, 1 mM EDTA-buffer, pH 7.4 and 200 µL protease inhibitor. A cell homogenate was prepared by passing the cell suspension through a G29 needle. The cell homogenates corresponding to two T175 flasks were combined and subsequently centrifuged (10 min, 1000× g, 4 °C). Ultracentrifugation of the supernatant (1 h, 100,000× g, 4 °C) yielded a membrane pellet, which was suspended in 250 µL 50 mM Tris-HCl buffer, pH 7.4 and stored at −80 °C.
(§3) Then, 5 µL of test compound in DMSO, 50 µL of [^3H]NMS in assay buffer, and 445 µL of membrane suspension in assay buffer were incubated for 90 min at 23 °C in PP tubes. Maximum binding was measured by using 5 µL DMSO, and nonspecific binding was measured by using 5 µL of 1 µM scopolamine in DMSO. The effective concentration of [^3H]NMS was 0.2 nM, 0.3 nM, 0.8 nM, 0.2 nM, and 1 nM for M1–M5 and 4–30 µg membrane were used per tube. The membrane-bound radioactivity was recovered by filtration through Whatman™ GF/B glass fiber filters presoaked in aqueous 0.1% PEI using an M-36 tygon tubed cell harvester (Brandel®, Gaithersburg, MD, USA). Membranes were washed three times with ice-cold washing buffer (50 mM Tris, pH 7.4) before being dried, transferred to 2 mL scintillation cocktail (UltimaGold™, high flashpoint LSC cocktail, PerkinElmer, Waltham, MA, USA) and counted in a β-counter (Hidex TDCR liquid scintillation counter in CPM mode). IC50 values were calculated by a variable slope logistic regression using at least five distinct concentrations of test compounds, pipetted in triplicates.

The target of data set [3] is T2, hM5 (Homo sapiens, UniProt P08912).
T2 sequence (P08912 1-532): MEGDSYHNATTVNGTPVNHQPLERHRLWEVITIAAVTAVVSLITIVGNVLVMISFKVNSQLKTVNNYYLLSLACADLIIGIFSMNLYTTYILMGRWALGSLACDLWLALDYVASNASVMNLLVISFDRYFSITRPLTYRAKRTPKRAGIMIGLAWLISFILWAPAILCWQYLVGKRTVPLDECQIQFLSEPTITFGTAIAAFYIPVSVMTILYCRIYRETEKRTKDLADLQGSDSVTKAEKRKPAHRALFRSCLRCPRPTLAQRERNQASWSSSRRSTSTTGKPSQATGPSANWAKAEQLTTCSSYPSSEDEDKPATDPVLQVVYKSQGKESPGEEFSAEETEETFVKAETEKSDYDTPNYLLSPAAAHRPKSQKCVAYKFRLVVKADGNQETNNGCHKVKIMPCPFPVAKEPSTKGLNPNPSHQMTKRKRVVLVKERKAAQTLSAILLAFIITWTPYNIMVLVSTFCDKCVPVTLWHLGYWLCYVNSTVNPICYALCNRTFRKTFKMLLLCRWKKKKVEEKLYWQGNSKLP
The data set can be described thus: Competitive [3H]NMS radioligand binding, CHO-K1 membranes expressing hM5. The settings on record: for Ki: [3H]NMS, CHO-hM5 cell membrane preparations, read-out: Affinity: Ki ± SD hM5.
Source text: as §1, §2, §3

Take `CN1CCC=C(C(=O)OC(c2ccccc2)c2ccc(CO)cc2)C1` (stereo not shown) [Compound 10c, (4-(hydroxymethyl)phenyl)(phenyl)methyl 1-methyl-1,2,5,6-tetrahydropyridine-3-carboxylate]: the chromatographic logD in data set [1] amounted to 2.8 ± 0.2. In addition, the Ki in data set [2] stood at 93 ± 23 nM; in data set [3], 72 ± 13 nM.

As to `CN1CCC=C(C(=O)OC(c2ccccc2)c2cccc(O)c2)C1` (stereo not shown) [Compound 17b, (3-hydroxyphenyl)(phenyl)methyl 1-methyl-1,2,5,6-tetrahydropyridine-3-carboxylate], the melting point is 143 to 144 °C. Besides, the chromatographic logD in data set [1] came out at 2.69 ± 0.01. Besides, the Ki in data set [2] was determined as 18.4 ± 5.8 nM. Further, in data set [3], the Ki came to 11 ± 1.5 nM.

`CN1CCC=C(C(=O)OCc2cccc(O)c2)C1` [Compound 18b, 3-hydroxybenzyl 1-methyl-1,2,5,6-tetrahydropyridine-3-carboxylate] came in with a melting point of 115 to 119 °C. The chromatographic logD in data set [1] is 1.57 ± 0.04. Besides, the Ki in data set [2] came to 634 ± 90 nM. For the same compound, the inhibition constant (Ki) in data set [3] stood at 90 ± 27 nM. Also, the “preference for hM5R over hM1R” value in data set [3] (in vitro binding affinities) is reported as “almost threefold”.

In data set [1], `CN1CCC=C(C(=O)OCc2ccc(CO)cc2)C1` [Compound 8c, 4-(hydroxymethyl)benzyl 1-methyl-1,2,5,6-tetrahydropyridine-3-carboxylate] displayed a chromatographic logD of 1.03 ± 0.04. For the same compound, the Ki was 697 ± 132 nM in data set [2] and 417 ± 73 nM in data set [3].

Take `CN1CCC=C(C(=O)OCC(O)(c2ccccc2)c2ccccc2)C1` [Compound 25, 2-hydroxy-2,2-diphenylethyl 1-methyl-1,2,5,6-tetrahydropyridine-3-carboxylate]: the melting point was 150 to 153 °C. The compound also gave a chromatographic logD in data set [1] of 2.69 ± 0.01. In data set [2], the Ki stood at 217 ± 23 nM. The Ki in data set [3] is 284 ± 62 nM.
